These results are taken from US10610520B2, “Heterocyclic compound” (Takeda Pharmaceutical Company Limited, priority 2016, dated 2020).

Molecules are shown by their SMILES.

The experiment addresses T1, His-hMAGL (recombinant polyhistidine tagged human MAGL protein) (Homo sapiens, UniProt Q99685).
T1 construct: made in house; host or cells: E. coli BL21(DE3)
T1 sequence (Q99685 1-303): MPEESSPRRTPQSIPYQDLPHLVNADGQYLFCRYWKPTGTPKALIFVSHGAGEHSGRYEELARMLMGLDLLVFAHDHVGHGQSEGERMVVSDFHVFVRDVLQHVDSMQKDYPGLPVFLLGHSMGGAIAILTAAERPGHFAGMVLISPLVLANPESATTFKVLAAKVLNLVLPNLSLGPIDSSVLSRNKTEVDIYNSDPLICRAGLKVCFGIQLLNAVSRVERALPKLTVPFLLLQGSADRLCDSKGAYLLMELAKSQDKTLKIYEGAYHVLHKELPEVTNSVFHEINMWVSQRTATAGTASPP
The experiment in a line: Measurement of MAGL inhibitory activity (arachidonic acid production from 2-arachidonylglycerol, RapidFire-mass spectrometry). Type of experiment: biochemical. As to conditions: MAGL inhibitory rate, test compound 10 μM, 60 min preincubation, 2-arachidonylglycerol substrate. The method, boiled down:
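Arachidonic acid formed was quantified by online solid-phase extraction and triple-quadrupole MS in negative SRM mode against a d8 internal standard. Reaction: recombinant His-hMAGL (7.5 ng/mL, pH 7.5 Tris buffer with Triton X-100 and BSA) plus 2-AG (5 μL of 150 μM stock) for 10 min at room temperature, quenched with 2% formic acid. Percent inhibition corrected for enzyme-free background.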

In the case of `Cc1c(OC(F)(F)F)ccc2c(Cl)c(C(=O)N3CCC4(COC(=O)N4)C3)sc12` (stereo not drawn) [Example 330, 7-((3-chloro-7-methyl-6-(trifluoromethoxy)-1-benzothiophen-2-yl)carbonyl)-3-oxa-1,7-diazaspiro[4.4]nonan-2-one], the “% inhibition (10 μM)” value (10 µM) was 96%.
As a reminder, the inhibition is the change of the read-out against control, counted positive when it falls. Turning to `Cc1cc(OC(F)(F)F)cc2sc(C(=O)N3CCC4(COC(=O)N4)C3)c(Cl)c12` (stereo not drawn) [Example 331, 7-((3-chloro-4-methyl-6-(trifluoromethoxy)-1-benzothiophen-2-yl)carbonyl)-3-oxa-1,7-diazaspiro[4.4]nonan-2-one], the inhibition at 10 µM was determined as 101%.
On the same count and under the same terms, with `O=C1NC2(CCN(C(=O)c3sc4cc(F)cc(Cl)c4c3Cl)C2)CO1` (stereo not drawn) [Example 332, 7-((3,4-dichloro-6-fluoro-1-benzothiophen-2-yl)carbonyl)-3-oxa-1,7-diazaspiro[4.4]nonan-2-one] the figure was 100%; with `O=C1NC2(CCN(C(=O)c3sc4c(F)c(C(F)(F)F)ccc4c3C(F)F)C2)CO1` (stereo not drawn) [Example 333, 7-((3-(difluoromethyl)-7-fluoro-6-(trifluoromethyl)-1-benzothiophen-2-yl)carbonyl)-3-oxa-1,7-diazaspiro[4.4]nonan-2-one], 99%.
Take `O=C1NC2(CCN(C(=O)c3sc4cc(C(F)(F)F)cc(F)c4c3Cl)C2)CO1` (stereo not drawn) [Example 334, 7-((3-chloro-4-fluoro-6-(trifluoromethyl)-1-benzothiophen-2-yl)carbonyl)-3-oxa-1,7-diazaspiro[4.4]nonan-2-one]: the inhibition at 10 µM is 100%.
For the compound `O=C1NC2(CO1)CN(C(=O)c1ccc(-c3cccc(C4(C(F)(F)F)CC4)c3)c(F)c1)C2` [Example 335, 2-((2-fluoro-3′-(1-(trifluoromethyl)cyclopropyl)biphenyl-4-yl)carbonyl)-7-oxa-2,5-diazaspiro[3.4]octan-6-one], the inhibition at 10 µM is 100%.
`O=C1NC2(CCN(C(=O)c3sc4c(F)c(OC(F)(F)F)cc(F)c4c3Cl)C2)CO1` (stereo not drawn) [Example 336, 7-((3-chloro-4,7-difluoro-6-(trifluoromethoxy)-1-benzothiophen-2-yl)carbonyl)-3-oxa-1,7-diazaspiro[4.4]nonan-2-one]: the inhibition at 10 µM was determined as 100%.
For `Cc1c(C(F)(F)F)ccc2c(Cl)c(C(=O)N3CCC4(COC(=O)N4)C3)sc12` (stereo not drawn) [Example 337, 7-((3-chloro-7-methyl-6-(trifluoromethyl)-1-benzothiophen-2-yl)carbonyl)-3-oxa-1,7-diazaspiro[4.4]nonan-2-one], the inhibition at 10 µM was found to be 100%.
On the same count and under the same terms, with `O=C1NC2(CCN(C(=O)c3sc4c(F)c(OC(F)(F)F)ccc4c3Cl)C2)CO1` (stereo not drawn) [Example 338, 7-((3-chloro-7-fluoro-6-(trifluoromethoxy)-1-benzothiophen-2-yl)carbonyl)-3-oxa-1,7-diazaspiro[4.4]nonan-2-one] the figure was 100%; with `O=C1NC2(CCN(C(=O)c3sc4cc(OC(F)(F)F)c(F)cc4c3Cl)C2)CO1` (stereo not drawn) [Example 339, 7-((3-chloro-5-fluoro-6-(trifluoromethoxy)-1-benzothiophen-2-yl)carbonyl)-3-oxa-1,7-diazaspiro[4.4]nonan-2-one], 100%; with `O=C1NC2(CCN(C(=O)c3sc4c(F)c(F)cc(Cl)c4c3Cl)C2)CO1` (stereo not drawn) [Example 340, 7-((3,4-dichloro-6,7-difluoro-1-benzothiophen-2-yl)carbonyl)-3-oxa-1,7-diazaspiro[4.4]nonan-2-one], 99%.
As for `Cc1cc(C(F)(F)F)cc2sc(C(=O)N3CCC4(COC(=O)N4)C3)c(Cl)c12` (stereo not drawn) [Example 341, 7-((3-chloro-4-methyl-6-(trifluoromethyl)-1-benzothiophen-2-yl)carbonyl)-3-oxa-1,7-diazaspiro[4.4]nonan-2-one], the inhibition at 10 µM stood at 100%.
Same read-out and setting: with `O=C1NC2(CCN(C(=O)c3sc4c(F)c(C(F)(F)F)ccc4c3Cl)C2)CO1` (stereo not drawn) [Example 342, 7-((3-chloro-7-fluoro-6-(trifluoromethyl)-1-benzothiophen-2-yl)carbonyl)-3-oxa-1,7-diazaspiro[4.4]nonan-2-one] the figure was 100%; with `O=C1NC2(CCN(C(=O)c3sc4cc(C(F)(F)F)c(F)cc4c3Cl)C2)CO1` (stereo not drawn) [Example 343, 7-((3-chloro-5-fluoro-6-(trifluoromethyl)-1-benzothiophen-2-yl)carbonyl)-3-oxa-1,7-diazaspiro[4.4]nonan-2-one], 100%.
Same read-out and setting: with `O=C1NC2(CO1)CN(C(=O)c1ccc(-c3cccc(C4(C(F)(F)F)CC4)c3)cc1)C2` [Example 344, 2-((3′-(1-(trifluoromethyl)cyclopropyl)biphenyl-4-yl)carbonyl)-7-oxa-2,5-diazaspiro[3.4]octan-6-one] the figure was 99%; with `O=C1NC2(CO1)CN(C(=O)c1sc3cc(-c4c(F)cccc4F)ccc3c1Cl)C2` [Example 345, 2-((3-chloro-6-(2,6-difluorophenyl)-1-benzothiophen-2-yl)carbonyl)-7-oxa-2,5-diazaspiro[3.4]octan-6-one], 100%; with `O=C1NC2(CO1)CN(C(=O)c1sc3cc(-c4ccccc4F)ccc3c1-c1ccccc1F)C2` [Example 346, 2-((3,6-bis(2-fluorophenyl)-1-benzothiophen-2-yl)carbonyl)-7-oxa-2,5-diazaspiro[3.4]octan-6-one], 100%.
On the same count and under the same terms, with `Cc1c(C(=O)N2CC3(COC(=O)N3)C2)sc2c(F)c(OC(F)(F)F)ccc12` [Example 347, 2-((7-fluoro-3-methyl-6-(trifluoromethoxy)-1-benzothiophen-2-yl)carbonyl)-7-oxa-2,5-diazaspiro[3.4]octan-6-one] the figure was 100%.
In the case of `O=C1NC2(CO1)CN(C(=O)[C@H]1C[C@H](OCc3ccc(Cl)cc3Cl)C1)C2` [Example 348, 2-((trans-3-((2,4-dichlorobenzyl)oxy)cyclobutyl)carbonyl)-7-oxa-2,5-diazaspiro[3.4]octan-6-one], the inhibition at 10 µM was found to be 100%.
Still for that read-out and setting: with `O=C1NC2(CO1)CN(C(=O)[C@H]1C[C@@H](OCc3ccc(Cl)cc3Cl)C1)C2` [Example 349, 2-((cis-3-((2,4-dichlorobenzyl)oxy)cyclobutyl)carbonyl)-7-oxa-2,5-diazaspiro[3.4]octan-6-one] the figure was 100%.
Still for that read-out and setting: with `O=C1NC2(CO1)CN(C(=O)[C@H]1C[C@H](OCc3ccc(C(F)(F)F)cc3Cl)C1)C2` [Example 350, 2-((trans-3-((2-chloro-4-(trifluoromethyl)benzyl)oxy)cyclobutyl)carbonyl)-7-oxa-2,5-diazaspiro[3.4]octan-6-one] the figure was 100%; with `Cc1c(C(=O)N2CC3(COC(=O)N3)C2)sc2cc(-c3c(F)cccc3F)ccc12` [Example 351, 2-((6-(2,6-difluorophenyl)-3-methyl-1-benzothiophen-2-yl)carbonyl)-7-oxa-2,5-diazaspiro[3.4]octan-6-one], 100%.
Turning to `O=C1NC2(CO1)CN(C(=O)[C@H]1C[C@@H](OCc3ccc(C(F)(F)F)cc3Cl)C1)C2` [Example 352, 2-((cis-3-((2-chloro-4-(trifluoromethyl)benzyl)oxy)cyclobutyl)carbonyl)-7-oxa-2,5-diazaspiro[3.4]octan-6-one], the inhibition at 10 µM is 100%.
Still for that read-out and setting: with `O=C1NC2(CO1)CN(C(=O)[C@H]1C[C@@H](OCc3ccc(Cl)c(Cl)c3)C1)C2` [Example 353, 2-((cis-3-((3,4-dichlorobenzyl)oxy)cyclobutyl)carbonyl)-7-oxa-2,5-diazaspiro[3.4]octan-6-one] the figure was 100%.
